{
  "source": "patent US9458095B2",
  "about": "“Oligo-benzamide compounds and their use in treating cancers” (The Board of Regents of the University of Texas System, priority 2011, dated 2016)",
  "key": {"wtAR": {"biological_target": "T1, wtAR (Homo sapiens, UniProt P10275)", "T1 construct": "expressed in transfected cells; host or cells: PC-3 cells (A3); M12 cells (A8)", "T1 sequence (P10275 1-920)": "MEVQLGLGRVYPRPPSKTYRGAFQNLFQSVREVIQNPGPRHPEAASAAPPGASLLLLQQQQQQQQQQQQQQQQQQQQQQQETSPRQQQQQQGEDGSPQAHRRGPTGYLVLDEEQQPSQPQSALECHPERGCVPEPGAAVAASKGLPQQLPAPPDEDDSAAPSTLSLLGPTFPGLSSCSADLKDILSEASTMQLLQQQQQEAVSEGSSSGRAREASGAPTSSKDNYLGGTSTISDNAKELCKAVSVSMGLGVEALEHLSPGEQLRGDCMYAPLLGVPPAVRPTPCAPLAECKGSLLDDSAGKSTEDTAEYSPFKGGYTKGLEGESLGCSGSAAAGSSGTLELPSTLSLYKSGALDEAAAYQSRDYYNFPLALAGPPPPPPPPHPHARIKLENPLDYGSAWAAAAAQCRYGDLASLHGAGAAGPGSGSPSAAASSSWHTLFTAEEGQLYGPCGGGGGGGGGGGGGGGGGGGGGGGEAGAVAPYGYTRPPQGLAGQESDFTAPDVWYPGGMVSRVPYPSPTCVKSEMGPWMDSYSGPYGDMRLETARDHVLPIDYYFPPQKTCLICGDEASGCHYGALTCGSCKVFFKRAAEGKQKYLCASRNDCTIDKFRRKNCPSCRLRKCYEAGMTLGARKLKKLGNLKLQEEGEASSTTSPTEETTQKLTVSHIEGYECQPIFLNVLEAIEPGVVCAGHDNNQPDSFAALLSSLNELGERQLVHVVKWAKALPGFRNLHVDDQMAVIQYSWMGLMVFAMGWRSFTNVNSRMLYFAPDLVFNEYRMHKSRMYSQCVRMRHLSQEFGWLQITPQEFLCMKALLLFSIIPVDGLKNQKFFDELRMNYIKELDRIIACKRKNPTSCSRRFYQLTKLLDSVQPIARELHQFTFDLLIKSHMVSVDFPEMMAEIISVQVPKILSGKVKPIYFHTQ", "test": "Rat probasin-luciferase reporter in M12 cells with ARwt", "type": "cell-based", "conditions": "100 nM peptidomimetic, 48 h", "description": "(§1) FIG. 5. Effect of T6 on basal level of ARE expression in M12 cells. M12 cells were transiently transfected with the rat probasin-luciferase reporter and either ARwt or ARv7. Cells were maintained for 48 h without (EtOH) and in the presence of 100 nM of peptidomimetic or volume equivalent of vehicle (DMSO) control or 10 μM of MDV3100. Luciferase assay results are shown."}, "ARv7": {"biological_target": "T2, ARv7 (Homo sapiens, UniProt P10275)", "T2 sequence (P10275 1-644 isoform P10275-3)": "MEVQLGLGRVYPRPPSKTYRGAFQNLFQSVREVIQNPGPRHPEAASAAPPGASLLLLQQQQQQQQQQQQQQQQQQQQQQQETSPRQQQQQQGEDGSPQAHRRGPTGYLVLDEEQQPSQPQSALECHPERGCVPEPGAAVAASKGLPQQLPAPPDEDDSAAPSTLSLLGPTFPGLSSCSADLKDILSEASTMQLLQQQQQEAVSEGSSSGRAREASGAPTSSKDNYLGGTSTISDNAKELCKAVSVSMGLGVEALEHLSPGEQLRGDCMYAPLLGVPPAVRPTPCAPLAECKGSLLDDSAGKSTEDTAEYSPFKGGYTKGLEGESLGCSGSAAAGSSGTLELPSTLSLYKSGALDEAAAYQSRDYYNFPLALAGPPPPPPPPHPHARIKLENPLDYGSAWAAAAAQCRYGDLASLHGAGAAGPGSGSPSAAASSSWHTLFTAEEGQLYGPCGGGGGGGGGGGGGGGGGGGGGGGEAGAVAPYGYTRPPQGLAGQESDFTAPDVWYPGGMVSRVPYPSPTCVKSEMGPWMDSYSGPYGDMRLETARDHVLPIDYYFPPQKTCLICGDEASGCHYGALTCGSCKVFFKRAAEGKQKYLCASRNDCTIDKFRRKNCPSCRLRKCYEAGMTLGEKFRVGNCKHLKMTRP", "test": "Rat probasin-luciferase reporter in M12 cells with ARv7", "type": "cell-based", "parameters": "expressed in transfected cells; host or cells: M12 cells (A9)", "conditions": "100 nM peptidomimetic, 48 h", "description": "as §1"}},
  "data": [
    {"smiles": "CC(C)COc1cc(C(N)=O)ccc1NC(=O)c1ccc(NC(=O)c2ccc([N+](=O)[O-])c(OCCc3ccc4ccccc4c3)c2)c(OCC(C)C)c1", "note": "[T6]", "values": [
      {"measurement": "expression of rat probasin reporter in M12 cells driven by wtAR", "setting": "wtAR", "result": "able to independently knock down"},
      {"measurement": "expression of rat probasin reporter in M12 cells driven by ARv7", "setting": "ARv7", "result": "able to independently knock down"}
    ]}
  ]
}
